Here are results for one sequence from paper PMC3057995, “Potent Anti-Tumor Effect Generated by a Novel Human Papillomavirus (HPV) Antagonist Peptide Reactivating the pRb/E2F Pathway” (PLoS ONE, 2011).

The subject of assay [1] is CaSki cells. Kind of assay: MTT cell viability assay, CaSki. The assay is classed as cell-based. To be noted: HPV16-positive, medium replaced daily, A540, mean ± SE, at least two independent runs in sextuplicate. Here is the method: (§1) Cell viability was determined with an MTT assay. Briefly, the cells were seeded into 96-well plates at a density of 4–5×10^3 cells/well. The cells were allowed to recover for 24 h before the medium was replaced with DMEM supplemented with peptides at different concentrations. The solvent of the peptides was set as the control. The peptide-supplemented medium was replaced daily and the respective concentrations were maintained. The cells were subjected to an MTT cell proliferation assay at different time points. The plates were incubated at 37°C for 3 h with the addition of 20 µl/well MTT (5 mg/ml). Untransformed MTT in the solution was removed by aspiration. The formazan product was dissolved in DMSO, and plates were shaken vigorously at room temperature for 10–15 min to ensure complete solubilization. The optical density of the formazan solutions was measured by microplate reader at 540 nm.

Assay [2] has as its system NIH/3T3 embryonic fibroblast cells. Kind of assay: MTT cell viability assay, NIH 3T3. In kind it is cell-based, mouse. To be noted: NIH 3T3, HPV-negative; data not shown.
Text: HPV16-positive SiHa and CaSki cervical carcinoma cells were supplied by China Center for Type Culture Collection (CCTCC). The following cell lines used in this project were from our laboratory: HPV18-positive HeLa cervical carcinoma cells, CNE nasopharyngeal carcinoma cells, HaCat human keratinocyte cells, COS7 (African green monkey SV40-transformed kidney fibroblast cell line), 293T (human kidney epithelial cells), and NIH/3T3 mouse embryonic fibroblast cells. All cells were maintained in a humidified atmosphere of 5% CO2, Dulbecco's modified Eagle's medium (DMEM, pH 7.2), supplemented with 10% fetal calf serum (FCS).
as §1, with “The formazan product was dissolved in DMSO, and plates were shaken vigorously at room temperature for 10–15 min to ensure complete solubilization.” left out

The test system of assay [3] is CaSki cells. Briefly: Clonogenic assay, CaSki. In kind it is cell-based. The note with it: 14 days. On the procedure:
Cells were seeded in DMEM at 1×10^3 cells/well density in 12-well plates and allowed to attach to the substrate overnight. Thereafter, cells were treated with 0 µM, 16 µM, 32 µM, 80 µM, and 160 µM peptide in DMEM, and the medium was changed every three days. The plates were observed daily for colony formation. After 8 (for HeLa cells) or 14 (for SiHa and CaSki cells) days of treatment, the cultures were washed three times with PBS and stained with crystal violet in ethanol for 15 min. The colonies were then counted and photographed with the Alphalmager® EP image acquisition system (Alpha Innotech, Santa Clara, CA, USA).

Assay [4] concerns CaSki cells. Briefly: Western blot, CaSki. To be noted: 80 µM, 48 h. In kind it is cell-based. Here is the method:
Western blotting was carried out as described previously, [50]. […] After another 48 h of treatment, the cells were lysed in lysis buffer (Beyotime Institute of Biotechnology, Jiangshu, China) containing PMSF (Sigma Chemical Co., St. Louis, MI, USA) for 30 min at 4°C. The lysate was then centrifuged for 20 min at 13,000 rpm and 4°C. The proteins were then separated through SDS-PAGE and transferred onto the PVDF membrane (Immobion®-P Transfer Membrane, Millipore Corp., Billerica, MA, USA). Membranes were blocked in a Tris-buffered saline with 0.1% Tween-20 (TBS-T) solution with 5% nonfat dry milk and incubated overnight with primary antibodies at 4°C. The immunoreactive signals were detected by HRP-conjugated secondary antibodies (KPL, Gaithersburg, MD, USA) followed by SuperSignal® West Pico Chemiluminescent Substrate (Thermo Scientific, Milford, MA, USA.). Anti-β-actin antibodies were used to control protein loading. For the in vivo studies, tumors were harvested, and the cell lysates were prepared and transferred to a clean Eppendorf tube and centrifuged for 30 min at 14,000 rpm. The supernate was probed by western blotting, as described above.

On to “SACPKGLDWCGG (C&C bridged by disulfide bonds) (disulfide) [Pep-7]”, for which the “cell proliferation (MTT)” value in the assay with CaSki cells [1] is “repressed significantly by Pep-7 in a dose- and time-dependent manner”. Also, in assay [2], the “cell proliferation (MTT)” value is recorded as “negligible effect”. In the assay on CaSki cells [3] (16-160 µM), the colony formation result is listed as “inhibited”. For the same sequence, in the assay on CaSki cells [3] (vs 0 µM group, three independent experiments), the “concentration up to which colony number difference vs control became significant (p<0.02)” value is 32 µM. In the assay on CaSki cells [4], the HPV16E7 protein level result is listed as “reduced”; the “cyclins A, D1 and E1 protein expression” value is “significantly reduced”; the pRb protein level result is recorded as “increased”.
